EC50 data for 28 molecules are collected here from patent publication US8592594B2, “Tetrahydro-quinoline derivatives” (Hoffmann-La Roche Inc., priority 2010, dated 2013).

Molecules are shown by their SMILES.

This assay has as its system recombinant AMPK proteins (α1β1γ1, α2β1γ1, α1(1-335), α1(1-394) or α2(1-394)). Briefly: Scintillation Proximity Assay (SPA), AMPK activation. Format: biochemical, human. The settings on record: effective concentration of activator for 50% of maximal enzyme activity; 50 nM AMPK, 2 μM ATP, 2 μM biotin-SAMS, 30° C., 2 hours. On the procedure: Recombinant human AMPK α1β1γ1, α2β1γ1 or AMPK α subunit truncations α1(1-335), α1(1-394) and α2(1-394) were constructed, expressed and purified as described previously (Pang, T., Zhang, Z. S., Gu, M., Qiu, B. Y., Yu, L. F., Cao, P. R., Shao, W., Su, M. B., Li, J. Y., Nan, F. J., and Li, J. (2008). Rat liver AMPK heterotrimer enzyme was obtained from Upstate (Billerica, Mass., U.S.A.).
Scintillation Proximity Assay
Before the Scintillation Proximity Assay (SPA) assay, 200 nM recombinant AMPK proteins (α1β1γ1, α2β1γ1, α1(1-335), α1(1-394) or α2(1-394)) were fully phosphorylated as described previously (Pang et al., 2008). SPA reactions were performed in 96-well plates at a final volume of 50 μL containing 20 mM Tris-HCl pH 7.5, 5 mM MgCl2, 1 mM DTT, 2 μM biotin-SAMS, 2 μM ATP, 0.2 μCi/well [γ-^33P]ATP, and various amount of activator. Reactions were initiated by the addition of 50 nM recombinant AMPK proteins to the reaction solutions and incubated at 30° C. for 2 hours. After that, reactions were terminated by the addition of 40 μL stop solution containing 80 μg streptavidin-coated SPA beads per well, 50 mM ED TA, 0.1% Triton X-100 in PBS, pH 7.5 and incubated for 1 hour. Finally, a 160 μL suspension solution containing 2.4 M CsCl, 50 mM EDTA, and 0.1% Triton X-100 in PBS (pH 7.5) was added to the reaction solution to suspend SPA beads completely. SPA signals were determined with a Wallac MicroBeta plate counter (PerkinElmer) 30 min later for calculation of the amount of product formed. The amount of products formed in 2 hour was plotted against activator concentrations to determine the effective concentration of the activator (EC50) required for 50% of maximal enzyme activity.
Turning to `CN(C)C(=O)c1ccc2c(c1)C1(CC1)CC(c1cc(F)ccc1Br)N2` (stereo not shown) [Example 34, 2-(2-Bromo-5-fluoro-phenyl)-spiro(cyclopropane-1,4′-1′,2′,3′,4′-tetrahydroquinoline)-6-carboxylic acid dimethylamide], the EC50 was found to be 2.71 µM.

With `O=C(NC1CCC1)c1ccc2c(c1)C1(CC1)CC(c1cc(F)ccc1Br)N2` (stereo not shown) [Example 35, 2-(2-Bromo-5-fluoro-phenyl)-spiro(cyclopropane-1,4′-1′,2′,3′,4′-tetrahydroquinoline)-6-carboxylic acid cyclobutylamide], the EC50 was determined as 6.88 µM. The result for `O=C(NC1CCC1)c1ccc2c(c1)C1(CC1)CC(c1cc(Br)ccc1F)N2` (stereo not shown) [Example 36, 2-(5-Bromo-2-fluoro-phenyl)-spiro(cyclopropane-1,4′-1′,2′,3′,4′-tetrahydroquinoline)-6-carboxylic acid cyclobutylamide] reads 5.63 µM; that for `O=C(NC1CC1)c1ccc2c(c1)C1(CC1)CC(c1cc(Cl)ccc1Cl)N2` (stereo not shown) [Example 37, 2-(2,5-Dichloro-phenyl)-spiro(cyclopropane-1,4′-1′,2′,3′,4′-tetrahydroquinoline)-6-carboxylic acid cyclopropylamide], 13.9 µM; that for `CNC(=O)c1ccc2c(c1)C1(CC1)CC(c1cc(Cl)ccc1Cl)N2` (stereo not shown) [Example 38, 2-(2,5-Dichloro-phenyl)-spiro(cyclopropane-1,4′-1′,2′,3′,4′-tetrahydroquinoline)-6-carboxylic acid methylamide], 2.38 µM. The result for `O=C(NC1CCC1)c1ccc2c(c1)C1(CC1)CC(c1cc(Cl)ccc1Cl)N2` (stereo not shown) [Example 39, 2-(2,5-Dichloro-phenyl)-spiro(cyclopropane-1,4′-1′,2′,3′,4′-tetrahydroquinoline)-6-carboxylic acid cyclobutylamide] reads 4.95 µM. The result for `O=C(c1ccc2c(c1)C1(CC1)CC(c1cc(Cl)ccc1Cl)N2)N1CCOCC1` (stereo not shown) [Example 40, [2-(2,5-Dichloro-phenyl)-spiro(cyclopropane-1,4′-1′,2′,3′,4′-tetrahydroquinolin)-6-yl]-morpholin-4-yl-methanone] reads 3.69 µM. As to `CC(C)NC(=O)c1ccc2c(c1)C1(CC1)CC(c1cc(Cl)ccc1Cl)N2` (stereo not shown) [Example 41, 2-(2,5-Dichloro-phenyl)-spiro(cyclopropane-1,4′-1′,2′,3′,4′-tetrahydroquinoline)-6-carboxylic acid isopropylamide], the EC50 came to 5.17 µM. In the case of `CS(=O)(=O)N1CCN(C(=O)c2ccc3c(c2)C2(CC2)CC(c2cc(Cl)ccc2Cl)N3)CC1` (stereo not shown) [Example 42, [2-(2,5-Dichloro-phenyl)-spiro(cyclopropane-1,4′-1′,2′,3′,4′-tetrahydroquinolin)-6-yl]-(4-methanesulfonyl-piperazin-1-yl)-methanone] it was 3.77 µM.

For `O=C(NC1CCC1)c1ccc2c(c1)C1(CC1)CC(c1cc(Cl)cc(Cl)c1)N2` (stereo not shown) [Example 43, 2-(3,5-Dichloro-phenyl)-spiro(cyclopropane-1,4′-1′,2′,3′,4′-tetrahydroquinoline)-6-carboxylic acid cyclobutylamide], the EC50 was 5.86 µM. The result for `O=C(c1ccc2c(c1)C1(CC1)CC(c1cc(Cl)ccc1F)N2)N1CCOCC1` (stereo not shown) [Example 44, [2-(5-Chloro-2-fluoro-phenyl)-spiro(cyclopropane-1,4′-1′,2′,3′,4′-tetrahydroquinolin)-6-yl]-morpholin-4-yl-methanone] reads 3.02 µM; that for `CN(C)C(=O)c1ccc2c(c1)C1(CC1)CC(c1cc(Cl)ccc1F)N2` (stereo not shown) [Example 45, 2-(5-Chloro-2-fluoro-phenyl)-spiro(cyclopropane-1,4′-1′,2′,3′,4′-tetrahydroquinoline)-6-carboxylic acid dimethylamide], 1.76 µM.

With `O=C(NC1CCC1)c1ccc2c(c1)C1(CC1)CC(c1cc(Cl)ccc1F)N2` (stereo not shown) [Example 46, 2-(5-Chloro-2-fluoro-phenyl)-spiro(cyclopropane-1,4′-1′,2′,3′,4′-tetrahydroquinoline)-6-carboxylic acid cyclobutylamide], the EC50 was found to be 7.62 µM.

With `CC(C)NC(=O)c1ccc2c(c1)C1(CC1)CC(c1cc(Cl)ccc1F)N2` (stereo not shown) [Example 47, 2-(5-Chloro-2-fluoro-phenyl)-spiro(cyclopropane-1,4′-1′,2′,3′,4′-tetrahydroquinoline)-6-carboxylic acid isopropylamide], the EC50 was found to be 11.4 µM.

`O=C(c1ccc2c(c1)C1(CC1)CC(c1cc(F)ccc1Br)N2)N1CCNCC1` (stereo not shown) [Example 48]: the EC50 was 2.1 µM. Consider `CNC(=O)c1ccc2c(c1)C1(CC1)CC(c1c(C)cc(F)cc1Br)N2` (stereo not shown) [Example 49, 2-(2-Bromo-4-fluoro-6-methyl-phenyl)-spiro(cyclopropane-1,4′-1′,2′,3′,4′-tetrahydroquinoline)-6-carboxylic acid methylamide], for which the EC50 amounted to 3.23 µM.

Turning to `CN(C)C(=O)c1ccc2c(c1)C(C)(C)CC(C(C)(C)c1ccccc1)N2` (stereo not shown) [Example 50, 4,4-Dimethyl-2-(1-methyl-1-phenyl-ethyl)-1,2,3,4-tetrahydro-quinoline-6-carboxylic acid dimethylamide], the EC50 came to 2.87 µM. The result for `CN(C)C(=O)c1ccc2c(c1)C1(CCCC1)CC(c1cc(F)ccc1Br)N2` (stereo not shown) [Example 51, 2-(2-Bromo-5-fluoro-phenyl)-spiro(cyclopentane-1,4′-1′,2′,3′,4′-tetrahydroquinoline)-6-carboxylic acid dimethylamide] reads 3.58 µM; that for `O=C(NC1CC1)c1ccc2c(c1)C1(CCCC1)CC(c1cc(F)ccc1Br)N2` (stereo not shown) [Example 52, 2-(2-Bromo-5-fluoro-phenyl)-spiro(cyclopentane-1,4′-1′,2′,3′,4′-tetrahydroquinoline)-6-carboxylic acid cyclopropylamide], 4.84 µM; that for `CN1CCC(NC(=O)c2ccc3c(c2)C2(CCCC2)CC(c2cc(F)ccc2Br)N3)CC1` (stereo not shown) [Example 53, 2-(2-Bromo-5-fluoro-phenyl)-spiro(cyclopentane-1,4′-1′,2′,3′,4′-tetrahydroquinoline)-6-carboxylic acid (1-methyl-piperidin-4-yl)-amide], 1.38 µM. The result for `O=C(NC1CCC1)c1ccc2c(c1)C1(CCCC1)CC(c1cc(F)ccc1Br)N2` (stereo not shown) [Example 54, 2-(2-Bromo-5-fluoro-phenyl)-spiro(cyclopentane-1,4′-1′,2′,3′,4′-tetrahydroquinoline)-6-carboxylic acid cyclobutylamide] reads 2.61 µM; that for `CNC(=O)c1ccc2c(c1)C1(CCCC1)CC(c1cc(F)ccc1Br)N2` (stereo not shown) [Example 55, 2-(2-Bromo-5-fluoro-phenyl)-spiro(cyclopentane-1,4′-1′,2′,3′,4′-tetrahydroquinoline)-6-carboxylic acid methylamide], 3.7 µM. The result for `O=C(NCCO)c1ccc2c(c1)C1(CCCC1)CC(c1cc(F)ccc1Br)N2` (stereo not shown) [Example 56, 2-(2-Bromo-5-fluoro-phenyl)-spiro(cyclopentane-1,4′-1′,2′,3′,4′-tetrahydroquinoline)-6-carboxylic acid (2-hydroxy-ethyl)-amide] reads 3.38 µM. With `O=C(c1ccc2c(c1)C1(CCCC1)CC(c1cc(F)ccc1Br)N2)N1CCOCC1` (stereo not shown) [Example 57, [2-(2-Bromo-5-fluoro-phenyl)-spiro(cyclopentane-1,4′-1′,2′,3′,4′-tetrahydroquinolin)-6-yl]-morpholin-4-yl-methanone], the EC50 amounted to 2.36 µM. `CN1CCN(C(=O)c2ccc3c(c2)C2(CCCC2)CC(c2cc(F)ccc2Br)N3)CC1` (stereo not shown) [Example 58, [2-(2-Bromo-5-fluoro-phenyl)-spiro(cyclopentane-1,4′-1′,2′,3′,4′-tetrahydroquinolin)-6-yl]-(4-methyl-piperazin-1-yl)-methanone]: the half-maximal effective concentration (EC50) came to 3.74 µM.

Consider `O=C(NC1COC1)c1ccc2c(c1)C1(CCCC1)CC(c1cc(F)ccc1Br)N2` (stereo not shown) [Example 59, 2-(2-Bromo-5-fluoro-phenyl)-spiro(cyclopentane-1,4′-1′,2′,3′,4′-tetrahydroquinoline)-6-carboxylic acid oxetan-3-ylamide], for which the half-maximal effective concentration (EC50) was 11.3 µM. The result for `CC(C)NC(=O)c1ccc2c(c1)C1(CCCC1)CC(c1cc(F)ccc1Br)N2` (stereo not shown) [Example 60, 2-(2-Bromo-5-fluoro-phenyl)-spiro(cyclopentane-1,4′-1′,2′,3′,4′-tetrahydroquinoline)-6-carboxylic acid isopropylamide] reads 4.41 µM. As for `O=C(NC1CCC1)c1ccc2c(c1)C1(CCCC1)CC(c1cc(Cl)ccc1Cl)N2` (stereo not shown) [Example 61, 2-(2,5-Dichloro-phenyl)-spiro(cyclopentane-1,4′-1′,2′,3′,4′-tetrahydroquinoline)-6-carboxylic acid cyclobutylamide], the 50% effective concentration (EC50) stood at 5.98 µM.
